Reference: patent US5008416A, “Organogermanium compound, process for the preparation of same as well as use thereof” (Sanwa Kagaku Kenkyusho Co., Ltd., priority 1989, dated 1991)
Like-named read-outs stand apart in the source and are kept apart here.

Legend:
[1] = tested on: tumor bearing mice; assay: Influence on delayed type hypersensitivity in tumor bearing mice (Pharmacological Experiment 3); format: in vivo, mouse (ICR male); conditions: for Foot pad swelling: 24 hours, mean ± standard error, n = 10
Method: To investigate the effect of the organogermanium compound on the cellular immunity, we employed the delayed type hypersensitivity (DTH) of mice. Tumor bearing mice were used as experimental animals with reduced immunity and effect of the compound on the reduced DTH reaction was assayed.
Sarcoma 180 cells (10^6 cells) were intraperitoneally implanted to ICR male mice (age of 8 weeks) and after 3 hours from the implantation, 10^6 cells of SRBC were injected by intravenous route. Four days later, 2×10^8 cells of SRBC were intracutaneus injection to hind foot pad. After 24 hours from the injection, the swelling of the foot pad was observed by stereoscopic microscope.
To the mice in each test group, the organogermanium compound (Example 4) dissolved in 4% bovine serum albumin was orally administered at the time 4 days before the immunization at the dose of 0.1, 1.0 and 10.0 mg/kg.

[2] = tested on: Influenza virus (A/PR/S strain); assay: Anti-virus effect, influenza virus infection model of mouse (Pharmacological Experiment 9); format: in vivo, mouse (BALB/c male); conditions: for Ratio of survival / Average life: 6 days; for Ratio of survival: 20 days from infection
Method: An antiviral effect of the compound according to the invention is investigated with an experimental influenza virus infection model of mouse.
Influenza virus (A/PR/S strain) was inoculated into a trachea of BALB/c male mice at 9.0 PFU/mouse. The organogermanium compound (Example 4) dissolved in 4% bovine serum albumin solution was orally administered at the dose of 0.1, 1.0 and 10.0 mg/kg once a day for 6 days from the day just after the infection to the 5th day therefrom.
A mortality of the mice was observed over 20 days from the virus infection.

[3] = tested on: Lewis lung carcinoma; assay: Anti-tumor effect, Lewis lung carcinoma (Pharmacological Experiment 6); format: in vivo, mouse (C57BL/6 male); conditions: for Inhibition (development of solid tumor) / Tumor weight: 5 days, 14th day; for Tumor weight: mean ± standard deviation, n = 10
Method: An anti-tumor effect of the organogermanium compound according to the invention is examined.
C57BL/6 male mice (n=10) as experimental animals were subcutaneously implanted with 1×10^5 cells of Lewis lung carcinoma to form a solid tumor. The organogermanium compound (Example 4) dissolved in 4% bovine serum albumin was orally administered at the dose of 0.1, 1.0 and 10.0 mg/kg once a day for 5 days on days 1 to 5 after the tumor implantation.
On 14th day from the implantation, formed solid tumor was removed and weighed. An antitumor effect represented the inhibitory percent of the compound on the development of solid tumor.

[4] = tested on: chronic liver injury induced by carbon tetrachloride (serum transaminases); assay: Action to chronic liver injury induced by carbon tetrachloride (Pharmacological Experiment 11); format: in vivo, rat (Wister male); conditions: for s-GOT / s-GPT: 10 weeks every other day, mean ± standard error, n = 10
Method: An action of the organogermanium compound of the invention to a chronic liver injury to be induced by carbon tetrachloride, as an experimental model for liver injury is checked, through measurement of serum transaminases, as indexes.
To Wister male rats (n=10 for each group), carbon tetrachloride was intraperitoneally administered at the dose of 480 mg/kg at 2 times by each week for 10 weeks to induce a chronic liver injury.
To the […] in each Test group, the compound according to the invention (Example 4) dissolved in 4% bovine serum albumin solution was orally administered at the dose of 0.1, 1.0 and 10.0 mg/kg/day over 10 weeks in every other day.
After having lapsed 2 days from the final administration of carbon tetrachloride, a blood letting was carried out to measure GOT and GPT values in serum.

[5] = tested on: acute liver injury induced by galactosamine (serum transaminases); assay: Action to acute liver injury induced by galactosamine (Pharmacological Experiment 10); format: in vivo, rat (Wister male); conditions: for s-GPT / s-GOT: 5 days, 48 hours, mean ± standard error, n = 10
Method: An action of the organogermanium compound of the invention to an acute liver injury to be induced by galactosamine, as an experimental model for liver injury is checked, through measurement of serum transaminases, as indexes.
To Wister male rats (n=10 for each group), galactosamine was administered into abdominal canal by a dose of 400 mg/kg at 2 times with an interval of 6 hours to induce a acute liver injury.
To the […] in each Test group, the compound according to the invention (Example 4) dissolved in 4% bovine serum albumin solution was orally administered by 0.1, 1.0 or 10.0 mg/kg/day over 5 days beginning from 3 days before the administration of galactosamine.
After having lapsed 48 hours from the first administration of galactosamine, a blood letting was carried out to measure GOT and GPT values in serum.

[6] = tested on: interferon (IFN) production; format: in vivo, mouse (BALB/c male); conditions: for INF titer: lung supernatant, three days, mean ± standard error, n = 5
[7] = tested on: NZB/WF1 mice; assay: Influence on antibody production in NZB/WF1 mice (Pharmacological Experiment 2); format: in vivo, mouse (NZB/WF1 female); conditions: for Number of PFC: 3 times, mean ± standard error, n = 5, (*) significant vs Control
Method: Influence of the organogermanium compound on antibody production is checked with use of NZB/WF1 mice who generate an autoimmune disease due to polyclonal activation of B cells, caused by functional reduction of suppresser T cell activities.
NZB/WF1 female mice (age of 11 weeks) were classified into Control group and Test groups (5 mice for each group), and 2×10^8 cells of SRBC were injected in a tail vein of each mouse for sensitization.
To the mice in each Test group, the organogermanium compound (Example 4) dissolved in 4% bovine serum albumin solution was orally administered in a dose of 1.0 or 10.0 mg/kg/day at 3 time, namely the day before, just after and the day after the sensitization.
After 4 days from the sensitization, spleen was removed from each mouse and number of PFC in 10^6 spleen cells was measured, as an index of the antibody production in the NZB/WF1 mice.

[8] = 1.0 mg/kg/day orally, (*) p < 0.05 vs Control
[9] = 10.0 mg/kg/day orally, (*) p < 0.05 vs Control

**Q.** Which results are given for “Sodium 2-oxygermylethanesulfonate polymer [Example 4]”?
**A.** Foot pad swelling ([1]; 0.1 mg/kg orally): 66.8 ± 7.5 ×0.01 mm; Foot pad swelling ([1]; 1.0 mg/kg orally, (***) p < 0.001 vs tumor bearing): 85.0 ± 5.9 ×0.01 mm; Foot pad swelling ([1]; 10.0 mg/kg orally, (***) p < 0.001 vs tumor bearing): 74.3 ± 4.9 ×0.01 mm; DTH response of tumor bearing mice (result in words) ([1]; 0.1, 1.0 and 10.0 mg/kg orally): significantly restored the reduced DTH response to normal level; Ratio of survival ([2]; 0.1 mg/kg orally once a day): 0/10; Average life ([2]; 0.1 mg/kg orally once a day, (*) p < 0.05 vs Control): 10.0 days; Ratio of survival ([2]; 1.0 mg/kg orally once a day): 4/10; Average life ([2]; 1.0 mg/kg orally once a day, (***) p < 0.001 vs Control): 15.2 days; Mice alive at end of test period ([2]; 1.0 mg/kg orally, 20 days from the infection): 4 mice; Ratio of survival ([2]; 10.0 mg/kg orally once a day): 3/10; Average life ([2]; 10.0 mg/kg orally once a day, (**) p < 0.01 vs Control): 13.7 days; Average life vs Control group (result in words) ([2]; each of Testing groups, 0.1, 1.0 and 10.0 mg/kg orally): a significant difference has been recognized; Inhibition (development of solid tumor) ([3]; 0.1 mg/kg orally once a day): 6.8%; Tumor weight ([3]; 0.1 mg/kg orally once a day): 1.77 ± 0.47 g; Inhibition (development of solid tumor) ([3]; 1.0 mg/kg orally once a day): 46.3%; Tumor weight ([3]; 1.0 mg/kg orally once a day, (*) p < 0.05 vs Control): 1.02 ± 0.16 g; Inhibition (development of solid tumor) ([3]; 10.0 mg/kg orally once a day): 28.4%; Tumor weight ([3]; 10.0 mg/kg orally once a day): 1.36 ± 0.31 g; Growth of Lewis lung carcinoma (result in words) ([3]; 0.1, 1.0 and 10.0 mg/kg orally): significantly inhibited the growth of Lewis lung carcinoma; s-GOT ([4]; 0.1 mg/kg/day orally): 1200 ± 180; s-GPT ([4]; 0.1 mg/kg/day orally): 1005 ± 97 Karmen Unit; s-GOT [4, 8]: 1054 ± 140; s-GPT [4, 8]: 940 ± 83 Karmen Unit; s-GPT ([4]; 10.0 mg/kg/day orally): 1086 ± 112 Karmen Unit; s-GOT [4, 9]: 1020 ± 164; GOT and GPT values (result in words) ([4]; by the dose of 1.0 mg/kg orally): noticeably decreasing GOT and GPT values; s-GPT ([5]; 0.1 mg/kg/day orally): 382 ± 151 Karmen Unit; s-GOT ([5]; 0.1 mg/kg/day orally, (*) p < 0.05 vs Control): 1034 ± 184; s-GPT [5, 8]: 238 ± 87 Karmen Unit; s-GOT ([5]; 1.0 mg/kg/day orally, (***) p < 0.001 vs Control): 563 ± 133; s-GPT [5, 9]: 275 Karmen Unit; s-GOT ([5]; 10.0 mg/kg/day orally, (**) p < 0.01 vs Control): 620 ± 201; GOT and GPT values (result in words) ([5]; 0.1, 1.0 or 10.0 mg/kg/day orally): noticeably decreasing GOT and GPT values; INF titer ([6]; 0.1 mg/kg orally): 49.3 ± 5.3 IU/mg protein; IFN activity, times higher than the control group ([6]; 1.0 mg/kg orally): about 2.5 times; INF titer ([6]; 1.0 mg/kg orally, (**) p < 0.01 vs control): 138.3 ± 17.1 IU/mg protein; IFN activity, times higher than the control group ([6]; 10.0 mg/kg orally): ~2.8 times; INF titer ([6]; 10.0 mg/kg orally, (**) p < 0.01 vs control): 156.7 ± 28.3 IU/mg protein; Number of PFC ([7]; 1.0 mg/kg/day orally): 3511 ± 302 PFC in 10^6 spleen cells; Number of PFC ([7]; 10.0 mg/kg/day orally): 3800 ± 360 PFC in 10^6 spleen cells; Number of PFC (result in words) ([7]; treatment groups, 1.0 or 10.0 mg/kg/day orally): the number of PFC was significantly reduced
